The values that follow are results of earlier work, collected in PMC10289985, “Brigatinib pharmacokinetics in patients with chronic hepatic impairment” (Investigational New Drugs, 2023).

Molecules are shown by their SMILES. Like-named read-outs stand apart in the source and are kept apart here.

Details of data set [1]: method as in PMID 30052269. The settings on record: cited from earlier work.
On the set-up of data set [2]: method as in ref 26 = [26]; 26. Zykadia [package insert] (2021) Novartis Pharmaceuticals Corporation, East Hanover, NJ. The settings on record: cited from earlier work.
Details of data set [3]: method as in PMID 29468455. The settings on record: patients with moderate or severe hepatic impairment; cited from earlier work.

Regarding `CCc1cc2c(cc1N1CCC(N3CCOCC3)CC1)C(C)(C)c1[nH]c3cc(C#N)ccc3c1C2=O` [alectinib], the results for the “increase of combined systemic exposures (AUC) of alectinib and its M4 metabolite” value in data set [1] (moderate hepatic impairment vs matched healthy participants) and in data set [1] (severe hepatic impairment vs matched healthy participants) were 36% and 76%, respectively.
Turning to `Cc1cc(Nc2ncc(Cl)c(Nc3ccccc3S(=O)(=O)C(C)C)n2)c(OC(C)C)cc1C1CCNCC1` [ceritinib], the “systemic exposures compared with healthy participants” value in data set [2] (mild and moderate hepatic impairment) is reported as “similar”. The “increase of unbound systemic exposure (AUC)” value in data set [2] (severe hepatic impairment) was 108%.
Turning to `C[C@@H](Oc1cc(-c2cnn(C3CCNCC3)c2)cnc1N)c1c(Cl)ccc(F)c1Cl` [crizotinib], the “change of concentrations in hepatic impairment” value in data set [3] is “increased”.
